Test results reported in ChEMBL document CHEMBL1134747, “Synthesis and antifungal activities of novel 1,3-beta-D-glucan synthase inhibitors. Part 1” (Bioorg Med Chem Lett, 2001).
pIC50: −log10 of the molar value. Converted amounts (≈) assume the structure as drawn.

Columns and labels:
Mus musculus = experiment: In vivo antifungal activity against systemic candidiasis in mouse model after a single iv administration; assay type: functional
Candida albicans [1] = experiment: In vitro antifungal activity against Candida albicans […] in the absence of 80% calf serum; assay type: functional, organism-based
Candida albicans [2] = experiment: In vitro antifungal activity against Candida albicans CY1002 in the presence of 80% calf serum; assay type: functional, organism-based
[3] = Hepatotoxicity using isolated ICR mouse hepatocytes by inclusion body formation assay (In Vitro); assay type: functional, cell-based; conditions: Hepatocyte
Beta-1,3-glucan synthase = Beta-1,3-glucan synthase (Candida albicans, UniProt O13428); experiment: Inhibition of 1,3-beta-D-glucan synthase (GS) from candida albicans
Chain of Beta-1,3-glucan synthase (O13428 whole entry): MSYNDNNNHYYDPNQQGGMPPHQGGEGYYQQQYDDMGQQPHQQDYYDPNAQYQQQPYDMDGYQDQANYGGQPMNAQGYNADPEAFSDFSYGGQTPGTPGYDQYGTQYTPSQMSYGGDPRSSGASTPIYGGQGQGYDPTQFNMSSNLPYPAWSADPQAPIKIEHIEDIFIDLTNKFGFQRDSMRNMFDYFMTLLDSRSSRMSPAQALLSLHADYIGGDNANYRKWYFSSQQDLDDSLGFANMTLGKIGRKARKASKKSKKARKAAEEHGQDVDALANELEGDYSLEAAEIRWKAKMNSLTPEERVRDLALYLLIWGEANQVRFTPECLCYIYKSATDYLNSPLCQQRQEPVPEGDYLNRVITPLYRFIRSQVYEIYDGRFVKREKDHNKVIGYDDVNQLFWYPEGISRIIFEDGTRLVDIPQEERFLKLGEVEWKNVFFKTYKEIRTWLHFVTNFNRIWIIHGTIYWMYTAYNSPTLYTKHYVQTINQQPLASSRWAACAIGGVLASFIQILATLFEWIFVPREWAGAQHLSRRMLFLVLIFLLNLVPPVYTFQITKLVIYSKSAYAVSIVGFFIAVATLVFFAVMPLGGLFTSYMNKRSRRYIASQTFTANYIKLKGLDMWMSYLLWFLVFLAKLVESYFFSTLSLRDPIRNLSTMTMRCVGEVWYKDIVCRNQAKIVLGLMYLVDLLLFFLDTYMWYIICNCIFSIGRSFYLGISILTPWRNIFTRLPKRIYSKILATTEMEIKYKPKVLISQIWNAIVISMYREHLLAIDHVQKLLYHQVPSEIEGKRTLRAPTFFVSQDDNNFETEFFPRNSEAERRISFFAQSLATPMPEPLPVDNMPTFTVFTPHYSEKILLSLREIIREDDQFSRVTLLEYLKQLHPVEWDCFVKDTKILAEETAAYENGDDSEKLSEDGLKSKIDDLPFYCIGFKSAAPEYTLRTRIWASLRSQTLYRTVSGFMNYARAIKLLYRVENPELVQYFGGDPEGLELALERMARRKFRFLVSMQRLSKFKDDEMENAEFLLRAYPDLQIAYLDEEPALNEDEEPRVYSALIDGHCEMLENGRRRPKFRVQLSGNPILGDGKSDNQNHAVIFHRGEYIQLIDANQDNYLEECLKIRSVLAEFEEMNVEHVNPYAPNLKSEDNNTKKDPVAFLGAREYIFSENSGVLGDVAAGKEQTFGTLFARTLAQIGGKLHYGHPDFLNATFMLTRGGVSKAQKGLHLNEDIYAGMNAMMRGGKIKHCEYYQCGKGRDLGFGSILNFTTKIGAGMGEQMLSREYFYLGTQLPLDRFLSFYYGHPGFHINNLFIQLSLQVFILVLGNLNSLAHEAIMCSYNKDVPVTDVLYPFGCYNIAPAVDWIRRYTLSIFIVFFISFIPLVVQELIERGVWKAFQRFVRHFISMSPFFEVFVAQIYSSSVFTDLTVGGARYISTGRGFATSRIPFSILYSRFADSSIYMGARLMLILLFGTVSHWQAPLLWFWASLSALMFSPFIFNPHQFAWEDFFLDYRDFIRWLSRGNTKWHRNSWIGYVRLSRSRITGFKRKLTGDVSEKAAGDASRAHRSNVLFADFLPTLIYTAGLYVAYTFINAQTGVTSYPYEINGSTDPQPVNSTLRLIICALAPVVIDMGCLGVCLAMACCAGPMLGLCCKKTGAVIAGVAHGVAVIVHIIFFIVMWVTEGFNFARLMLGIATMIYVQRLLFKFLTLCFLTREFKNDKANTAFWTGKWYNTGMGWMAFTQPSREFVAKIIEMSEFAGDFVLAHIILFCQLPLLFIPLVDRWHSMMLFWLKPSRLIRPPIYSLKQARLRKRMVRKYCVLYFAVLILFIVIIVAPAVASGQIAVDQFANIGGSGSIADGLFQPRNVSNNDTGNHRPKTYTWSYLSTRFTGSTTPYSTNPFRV

[4] = Hepatotoxicity determined using isolated ICR mouse hepatocytes by inclusion body formation assay (In Vitro); assay type: functional, cell-based; conditions: Hepatocyte

Row | SMILES | ED50 (Mus musculus) [mg/kg] | IC50 (Candida albicans [1]) [µg/mL] | IC50 (Candida albicans [2]) [µg/mL] | IC50 [3] [µg/mL] | pIC50 (Beta-1,3-glucan synthase) | IC50 [4] [µg/mL]
1 | CCCCCCCCCCCCC[C@@H]1CC(=O)N[C@@H]([C@@H](C)O)C(=O)N[C@H](C)C(=O)N[C@@H](Cc2ccc(O)cc2)C(=O)N[C@@H](C(C)C)C(=O)N2C[C@H](O)C[C@H]2C(=O)N[C@@H]([C@@H](C)O)C(=O)N[C@@H]([C@@H](C)O)C(=O)N2CC[C@H](O)[C@H]2C(=O)N[C@@H]([C@H](O)CC(N)=O)C(=O)NCC(=O)N[C@@H]([C@@H](C)O)C(=O)N[C@@H](CCCNC(=O)C(N)CCCN)C(=O)O1 (some centres not stated) | 0.2 | 0.08 (≈ 0.0485 µM) | 0.47 | 10 (≈ 6.07 µM) | 8.10 | –
2 | CCCCCCCCCCCCC[C@@H]1CC(=O)N[C@@H]([C@H](C)O)C(=O)N[C@H](C)C(=O)N[C@@H](Cc2ccc(O)cc2)C(=O)N[C@@H](C(C)C)C(=O)N2C[C@H](O)C[C@H]2C(=O)N[C@@H]([C@@H](C)O)C(=O)N[C@@H]([C@@H](C)O)C(=O)N2CC[C@H](O)[C@H]2C(=O)N[C@@H]([C@H](O)CC(N)=O)C(=O)NCC(=O)N[C@@H]([C@@H](C)O)C(=O)N[C@@H](CCCNC(C)=O)C(=O)O1 | – | – | – | – | 6.64 | –
3 | CCCCCCCCCCCCC[C@@H]1CC(=O)N[C@@H]([C@@H](C)O)C(=O)N[C@H](C)C(=O)N[C@@H](Cc2ccc(O)cc2)C(=O)N[C@@H](C(C)C)C(=O)N2C[C@H](O)C[C@H]2C(=O)N[C@@H]([C@@H](C)O)C(=O)N[C@@H]([C@@H](C)O)C(=O)N2CC[C@H](O)[C@H]2C(=O)N[C@@H]([C@H](O)CC(N)=O)C(=O)NCC(=O)N[C@H]([C@@H](C)O)C(=O)N[C@@H](CCCNC(=O)CN)C(=O)O1 | – | – | – | – | 7.70 | –
4 | CCCCCCCCCCCCC[C@@H]1CC(=O)N[C@@H]([C@@H](C)O)C(=O)N[C@H](C)C(=O)N[C@@H](Cc2ccc(O)cc2)C(=O)N[C@@H](C(C)C)C(=O)N2C[C@H](O)C[C@H]2C(=O)N[C@@H]([C@@H](C)O)C(=O)N[C@@H]([C@@H](C)O)C(=O)N2CC[C@H](O)[C@H]2C(=O)N[C@@H]([C@H](O)CC(N)=O)C(=O)NCC(=O)N[C@@H]([C@@H](C)O)C(=O)N[C@H](CCCNC(=O)C(N)CCCN)C(=O)O1 (some centres not stated) | 0.1 | 0.12 (≈ 0.0728 µM) | 0.33 | 30 (≈ 18.2 µM) | 8.30 | –
5 | CCCCCCCCCCCCC[C@@H]1CC(=O)N[C@@H]([C@@H](C)O)C(=O)N[C@H](C)C(=O)N[C@@H](Cc2ccc(O)cc2)C(=O)N[C@@H](C(C)C)C(=O)N2C[C@H](O)C[C@H]2C(=O)N[C@@H]([C@@H](C)O)C(=O)N[C@@H]([C@@H](C)O)C(=O)N2CC[C@H](O)[C@H]2C(=O)N[C@@H]([C@H](O)CC(N)=O)C(=O)NCC(=O)N[C@@H]([C@@H](C)O)C(=O)N[C@@H](CCCN)C(=O)O1 | – | 0.02 (≈ 0.013 µM) | 0.57 | 10 (≈ 6.52 µM) | 7.92 | –
6 | CCCCCCCCCCCCC[C@@H]1CC(=O)N[C@@H]([C@@H](C)O)C(=O)N[C@H](C)C(=O)N[C@@H](Cc2ccc(O)cc2)C(=O)N[C@@H](C(C)C)C(=O)N2C[C@H](O)C[C@H]2C(=O)N[C@@H]([C@@H](C)O)C(=O)N[C@@H]([C@@H](C)O)C(=O)N2CC[C@H](O)[C@H]2C(=O)N[C@@H]([C@H](O)CC(N)=O)C(=O)NCC(=O)N[C@@H]([C@@H](C)O)C(=O)N[C@@H](CCCNC(=O)OC(C)(C)C)C(=O)O1 | 0.22 | – | – | – | – | –
7 | CCCCCCCCCCCCC[C@@H]1CC(=O)N[C@@H]([C@H](C)O)C(=O)N[C@H](C)C(=O)N[C@@H](Cc2ccc(OCc3ccccc3)cc2)C(=O)N[C@@H](C(C)C)C(=O)N2C[C@H](O)C[C@H]2C(=O)N[C@H]([C@@H](C)O)C(=O)N[C@@H]([C@@H](C)O)C(=O)N2CC[C@H](O)[C@H]2C(=O)N[C@@H]([C@H](O)CC(N)=O)C(=O)NCC(=O)N[C@@H]([C@@H](C)O)C(=O)N[C@@H](CCCN)C(=O)O1 | – | – | – | – | < 6.89 | –
8 | CCCCCCCCCCCCC[C@@H]1CC(=O)N[C@@H]([C@@H](C)O)C(=O)N[C@H](C)C(=O)N[C@@H](Cc2ccc(O)cc2)C(=O)N[C@@H](C(C)C)C(=O)N2C[C@H](O)C[C@H]2C(=O)N[C@@H]([C@@H](C)O)C(=O)N[C@@H]([C@@H](C)O)C(=O)N2CC[C@H](O)[C@H]2C(=O)N[C@@H]([C@H](O)CC#N)C(=O)NCC(=O)N[C@@H]([C@@H](C)O)C(=O)N[C@@H](CCN)C(=O)O1 | – | – | – | – | 7.72 | –
9 | CCCCCCCCCCCCC[C@@H]1CC(=O)N[C@@H]([C@@H](C)O)C(=O)N[C@H](C)C(=O)N[C@@H](Cc2ccc(O)cc2)C(=O)N[C@@H](C(C)C)C(=O)N2C[C@H](O)C[C@H]2C(=O)N[C@@H]([C@@H](C)O)C(=O)N[C@@H]([C@@H](C)O)C(=O)N2CC[C@H](O)[C@H]2C(=O)N[C@@H]([C@H](O)CC(N)=O)C(=O)NCC(=O)N[C@@H]([C@@H](C)O)C(=O)N[C@@H](CCCN(C)C)C(=O)O1 | – | – | – | – | 7.35 | –
10 | CCCCCCCCCCCCC[C@@H]1CC(=O)N[C@@H]([C@@H](C)O)C(=O)N[C@H](C)C(=O)N[C@@H](Cc2ccc(O)cc2)C(=O)N[C@@H](C(C)C)C(=O)N2C[C@H](O)C[C@H]2C(=O)N[C@@H]([C@@H](C)O)C(=O)N[C@@H]([C@@H](C)O)C(=O)N2CC[C@H](O)[C@H]2C(=O)N[C@@H]([C@H](O)CC(N)=O)C(=O)NCC(=O)N[C@H]([C@@H](C)O)C(=O)N[C@@H](CCCN(CCN)CCN)C(=O)O1 | 0.05 | 0.1 (≈ 0.0617 µM) | 0.42 | – | 8.70 | 10 (≈ 6.17 µM)
11 | CCCCCCCCCCCCC[C@@H]1CC(=O)N[C@@H]([C@@H](C)O)C(=O)N[C@H](C)C(=O)N[C@@H](Cc2ccc(O)cc2)C(=O)N[C@@H](C(C)C)C(=O)N2C[C@H](O)C[C@H]2C(=O)N[C@@H]([C@@H](C)O)C(=O)N[C@@H]([C@@H](C)O)C(=O)N2CC[C@H](O)[C@H]2C(=O)N[C@@H]([C@H](O)CCN)C(=O)NCC(=O)N[C@@H]([C@@H](C)O)C(=O)N[C@@H](CCN)C(=O)O1 | 0.04 | 0.01 (≈ 0.00664 µM) | 0.18 | 10 (≈ 6.64 µM) | 8.22 | –
12 | CCCCCCCCCCCCC[C@@H]1CC(=O)N[C@@H]([C@@H](C)O)C(=O)N[C@H](C)C(=O)N[C@@H](Cc2ccc(O)cc2)C(=O)N[C@@H](C(C)C)C(=O)N2C[C@H](O)C[C@H]2C(=O)N[C@@H]([C@@H](C)O)C(=O)N[C@@H]([C@@H](C)O)C(=O)N2CC[C@H](O)[C@H]2C(=O)N[C@@H]([C@H](O)CC(N)=O)C(=O)NCC(=O)N[C@@H]([C@@H](C)O)C(=O)N[C@@H](CCCO)C(=O)O1 | – | – | – | – | < 6.28 | –
13 | CCCCCCCCCCCCC[C@@H]1CC(=O)N[C@@H]([C@@H](C)O)C(=O)N[C@H](C)C(=O)N[C@@H](Cc2ccc(OC)cc2)C(=O)N[C@@H](C(C)C)C(=O)N2C[C@H](O)C[C@H]2C(=O)N[C@@H]([C@@H](C)O)C(=O)N[C@@H]([C@@H](C)O)C(=O)N2CC[C@H](O)[C@H]2C(=O)N[C@@H]([C@H](O)CC(N)=O)C(=O)NCC(=O)N[C@@H]([C@@H](C)O)C(=O)N[C@@H](CCCN)C(=O)O1 | – | – | – | – | 7.62 | –
